# From patent US10377694B2, “Bi-aromatic propynyl compounds, pharmaceutical and cosmetic compositions containing them and uses thereof” (GALDERMA RESEARCH & DEVELOPMENT, priority 2016, dated 2019)
# Columns and labels:
# Test in all cases: Transactivation test (apparent Kd by Schild regression versus reference antagonist), luciferase reporter in HeLa cells
# Type in all cases: cell-based
# RAR beta = molecular target: T1, RAR beta (Homo sapiens, UniProt P10826); conditions: HeLa stable transfectants ERE-βGlob-Luc-SV-Neo and RAR beta ER-DBD-puro, 18 hours incubation, read-out: RAR beta Kdapp
# T1 sequence (P10826 183-417 limits assumed): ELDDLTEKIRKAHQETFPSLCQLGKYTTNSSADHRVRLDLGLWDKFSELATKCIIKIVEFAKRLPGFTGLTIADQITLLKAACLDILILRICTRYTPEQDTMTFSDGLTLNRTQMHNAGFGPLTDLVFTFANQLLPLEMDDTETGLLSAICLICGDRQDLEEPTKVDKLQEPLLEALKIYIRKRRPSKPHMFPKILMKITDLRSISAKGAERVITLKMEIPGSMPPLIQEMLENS
# Procedure: (§1) Activation of receptors by an agonist (activator) in HeLa cells leads to the expression of a reporter gene, luciferase, which generates light in the presence of a substrate. Therefore the activation of receptors can be measured by quantifying the luminescence produced after incubation of the cells in the presence of a reference antagonist. The activator products displace the antagonist from its site, thus permitting the receptor to be activated. The activity is measured by quantifying the increase in light produced. This measurement determines the activating activity of the useful compound in the invention.
# (§2) In this study, a constant is determined that represents the affinity of the molecule for the receptor. This value can fluctuate according to the basal activity and expression of the receptor; it is designated apparent Kd (KdApp).
# (§3) To determine this constant, cross curves are created of the product to be tested (4′-(3-hydroxy-propyl)-3′-(5,5,8,8-tetramethyl-5,6,7,8-tetrahydro-naphthalen-2-yl)-biphenyl-4-carboxylic acid and 4′-(2,3-dihydroxy-propyl)-3′-(5,5,8,8-tetramethyl-5,6,7,8-tetrahydro-naphtalen-2-yl)-biphenyl-4-carboxylic) acid versus a reference antagonist also called reference ligand, 4-(5,5-dimethyl-8-p-tolyl-5,6-dihydro-naphthalen-2-ylethynyl)-benzoic acid. The product to be tested is used at 10 concentrations and the reference antagonist at 7 concentrations. In each well (of a 96-well plate), the cells are in contact with one concentration of the product to be tested and one concentration of the reference antagonist.
# (§4) Full agonist controls, also called 100% controls, (4-[2-(5,5,8,8 tetramethyl-5,6,7,8 tetrahydronaphthalene-2-yl)propenyl]-benzoic acid) and inverse agonist controls, also called 0% controls, (4-{(E)-3-[4-(4-tert-butyl-phenyl)-5,5,8,8-tetramethyl-5,6,7,8-tetrahydro-naphthalen-2-yl]-3-oxo-propenyl}-benzoic acid) are also measured.
# (§5) These cross curves allow determining the AC50 (concentration at which 50% activation of the receptor is observed) of the reference ligand at different concentrations of the product to be tested. These AC50s are used to calculate the Schild regression by plotting a line conforming to the Schild equation (“Quantitation in receptor pharmacology” Terry P. Kenakin, Receptors and Channels, 2001, 7, 371-385).
# (§6) In the case of an agonist, the AC50 is calculated by plotting the curve of the product at the concentration of the reference ligand giving 80% activation. The percentage of activation that corresponds to the maximum level of activity obtained is also measured.
# (§7) The HeLa cell lines used are stable transfectants containing the plasmids ERE-βGlob-Luc-SV-Neo (reporter gene) and RAR (α, β, γ) ER-DBD-puro. These cells are inoculated onto 96-well plates in an amount of 10,000 cells per well in 100 μl DMEM medium with no phenol red and supplemented with 10% delipidated fetal bovine serum. The plates are then incubated at 37° C., 7% CO2 for 4 hours.
# (§8) The different dilutions of the product to be tested, the reference ligand (4-(5,5-dimethyl-8-p-tolyl-5,6-dihydro-naphthalen-2-ylethynyl)-benzoic acid), the 100% control (100 nM 4-[2-(5,5,8,8 tetramethyl-5,6,7,8 tetrahydronaphthalene-2-yl)propenyl]-benzoic acid) and the 0% control (500 nM 4-{(E)-3-[4-(4-tert-butyl-phenyl)-5,5,8,8-tetramethyl-5,6,7,8-tetrahydro-naphthalen-2-yl]-3-oxo-propenyl}-benzoic acid) are added in an amount of 5 μl per well. The plates are then incubated 18 hours at 37° C., 7% CO2.
# (§9) The culture medium is removed by turning over and 100 μl of a 1:1 PBS (phosphate buffer solution)/luciferin mixture is added to each well. After 5 minutes, the plates are read by the luminescence reader.
# RAR alpha = molecular target: T2, RAR alpha (Homo sapiens, UniProt P10276); conditions: HeLa stable transfectants ERE-βGlob-Luc-SV-Neo and RAR alpha ER-DBD-puro, 18 hours incubation, read-out: RAR alpha Kdapp
# T2 sequence (P10276 183-417 limits assumed): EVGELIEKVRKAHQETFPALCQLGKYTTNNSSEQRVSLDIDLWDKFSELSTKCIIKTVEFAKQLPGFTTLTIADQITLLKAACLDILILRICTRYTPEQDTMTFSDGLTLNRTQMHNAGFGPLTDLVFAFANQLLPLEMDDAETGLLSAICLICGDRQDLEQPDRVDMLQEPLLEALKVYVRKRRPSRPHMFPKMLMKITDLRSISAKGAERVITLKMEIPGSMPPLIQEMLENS
# Procedure: as §1, §2, §3, §4, §5, §6, §7, §8, §9
# RAR gamma = molecular target: T3, RAR gamma (Homo sapiens, UniProt P13631); conditions: HeLa stable transfectants ERE-βGlob-Luc-SV-Neo and RAR gamma ER-DBD-puro, 18 hours incubation, read-out: RAR gamma Kdapp
# T3 sequence (P13631 185-454 limits assumed): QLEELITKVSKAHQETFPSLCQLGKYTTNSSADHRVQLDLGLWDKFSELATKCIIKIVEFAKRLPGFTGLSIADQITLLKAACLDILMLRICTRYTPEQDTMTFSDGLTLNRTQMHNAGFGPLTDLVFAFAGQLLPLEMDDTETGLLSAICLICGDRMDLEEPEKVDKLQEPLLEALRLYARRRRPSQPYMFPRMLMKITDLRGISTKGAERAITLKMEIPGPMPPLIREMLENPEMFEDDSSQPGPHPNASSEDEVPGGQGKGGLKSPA
# Procedure: as §1, §2, §3, §4, §5, §6, §7, §8, §9
SMILES,Kd (RAR beta) [nM],Kd (RAR alpha) [nM],Kd (RAR gamma) [nM]
CC1(C)CCC(C)(C)c2c(O)cc(C#Cc3ccc(C(=O)O)c(O)c3)cc21 [Compound 1],4,120,4
CC1(C)CCC(C)(C)c2c(OCC3CC3)cc(C#Cc3ccc(C(=O)O)cn3)cc21 [Compound 2],2,30,4
